Reference: the OligoGym collection
HELM strings list units from the 5' end as sugar, base in round brackets, then linkage (d deoxyribose, r ribose, m 2'-O-methyl, p phosphodiester). Strings are as the collection lists them; they lack the last nucleoside at the 3' end of the tested compound. [moe] = 2'-O-(2-methoxyethyl) (MOE); [sp] = phosphorothioate linkage; [m5C] = 5-methylcytosine

Target: UBE3A-ATS
Test: mouse, dose not given
Details: ASO

Row | Substance | 3 h FOB score [score 0-7]
1 | RNA1{[moe](T)[sp].[moe](G)p.[moe]([m5C])p.[moe](A)p.d(T)[sp].d(A)[sp].d([m5C])[sp].d([m5C])[sp].d([m5C])[sp].d(A)[sp].d(G)[sp].d(G)[sp].d(G)[sp].d(T)[sp].[moe](A)p.[moe](G)p.[moe](G)p.[moe](A)[sp].[moe](T)}$$$$ (last 3' nucleoside missing) | 1
2 | RNA1{[moe](T)[sp].[moe](G)p.[moe]([m5C])p.[moe](T)[sp].d(T)[sp].d([m5C])[sp].d(A)[sp].d([m5C])[sp].d([m5C])[sp].d(A)[sp].d(T)[sp].d(T)[sp].[moe](T)p.[moe](T)p.[moe](G)p.[moe](A)[sp].[moe]([m5C])}$$$$ (last 3' nucleoside missing) | 0
3 | RNA1{[moe](T)[sp].[moe](G)p.[moe]([m5C])p.[moe](T)[sp].d([m5C])[sp].d(A)[sp].d(G)[sp].d(T)[sp].d(T)[sp].d(A)[sp].d(G)[sp].d(G)[sp].[moe](T)p.[moe](T)p.[moe](A)p.[moe](G)[sp].[moe](T)}$$$$ (last 3' nucleoside missing) | 7
4 | RNA1{[moe](T)[sp].[moe](G)p.[moe]([m5C])p.[moe](T)p.[moe](G)p.[moe](A)p.d(T)[sp].d([m5C])[sp].d(A)[sp].d([m5C])[sp].d(A)[sp].d(T)[sp].d(T)[sp].d(A)[sp].d([m5C])[sp].d([m5C])[sp].[moe]([m5C])p.[moe](A)[sp].[moe](T)}$$$$ (last 3' nucleoside missing) | 1
5 | RNA1{[moe](T)[sp].[moe](G)p.[moe]([m5C])p.[moe](T)p.[moe](G)p.d(A)[sp].d(T)[sp].d([m5C])[sp].d(A)[sp].d([m5C])[sp].d(A)[sp].d(T)[sp].d(T)[sp].d(A)[sp].d([m5C])[sp].[moe]([m5C])p.[moe]([m5C])p.[moe](A)[sp].[moe](T)}$$$$ (last 3' nucleoside missing) | 0
6 | RNA1{[moe](T)[sp].[moe](G)p.[moe]([m5C])p.[moe](T)p.[moe](T)p.[moe]([m5C])p.d(A)[sp].d([m5C])[sp].d([m5C])[sp].d(A)[sp].d(T)[sp].d(T)[sp].d(T)[sp].d(T)[sp].d(G)[sp].d(A)[sp].[moe]([m5C])p.[moe]([m5C])[sp].[moe](T)}$$$$ (last 3' nucleoside missing) | 0
7 | RNA1{[moe](T)[sp].[moe](G)p.[moe]([m5C])p.[moe](T)p.[moe](T)p.d([m5C])[sp].d(A)[sp].d([m5C])[sp].d([m5C])[sp].d(A)[sp].d(T)[sp].d(T)[sp].d(T)[sp].d(T)[sp].d(G)[sp].[moe](A)p.[moe]([m5C])p.[moe]([m5C])[sp].[moe](T)}$$$$ (last 3' nucleoside missing) | 1
8 | RNA1{[moe](T)[sp].[moe](G)p.[moe]([m5C])p.[moe](T)p.[moe]([m5C])[sp].d(A)[sp].d(G)[sp].d(T)[sp].d(T)[sp].d(A)[sp].d(G)[sp].d(G)[sp].d(T)[sp].[moe](T)p.[moe](A)p.[moe](G)[sp].[moe](T)}$$$$ (last 3' nucleoside missing) | 6.3
9 | RNA1{[moe](T)[sp].[moe](G)p.[moe]([m5C])p.[moe](T)p.[moe]([m5C])p.[moe](A)[sp].d(G)[sp].d(T)[sp].d(T)[sp].d(A)[sp].d(G)[sp].d(G)[sp].d(T)[sp].d(T)[sp].[moe](A)p.[moe](G)[sp].[moe](T)}$$$$ (last 3' nucleoside missing) | 5.7
10 | RNA1{[moe](T)[sp].[moe](G)p.[moe]([m5C])p.[moe](T)p.[moe]([m5C])p.[moe](A)p.d(G)[sp].d(T)[sp].d(T)[sp].d(A)[sp].d(G)[sp].d(G)[sp].d(T)[sp].d(T)[sp].d(A)[sp].d(G)[sp].[moe](T)p.[moe](G)[sp].[moe]([m5C])}$$$$ (last 3' nucleoside missing) | 4
